In PubChem BioAssay (NCI):
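The compound was tested at five concentrations on cells cultured in 96-well plates, with a 48-hour exposure period. The concentration for 50% growth inhibition is given as GI50. TGI: total growth inhibition.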

Columns and labels:
Test in all cases: NCI-60 cell line screen, 48 h
786-0 renal = tested on: 786-0 renal
A498 renal = tested on: A498 renal
A549 NSCLC = tested on: A549 NSCLC
ACHN renal = tested on: ACHN renal
BT-549 breast = tested on: BT-549 breast
CAKI-1 renal = tested on: CAKI-1 renal
CCRF-CEM leukemia = tested on: CCRF-CEM leukemia
COLO 205 colon = tested on: COLO 205 colon
DU-145 prostate = tested on: DU-145 prostate
EKVX NSCLC = tested on: EKVX NSCLC
HCC-2998 colon = tested on: HCC-2998 colon
HCT-116 colon = tested on: HCT-116 colon
HCT-15 colon = tested on: HCT-15 colon
HL-60(TB) leukemia = tested on: HL-60(TB) leukemia
HOP-62 NSCLC = tested on: HOP-62 NSCLC
HOP-92 NSCLC = tested on: HOP-92 NSCLC
HS 578T breast = tested on: HS 578T breast
HT29 colon = tested on: HT29 colon
IGROV1 ovarian = tested on: IGROV1 ovarian
K-562 leukemia = tested on: K-562 leukemia
KM12 colon = tested on: KM12 colon
LOX IMVI melanoma = tested on: LOX IMVI melanoma
M14 melanoma = tested on: M14 melanoma
MALME-3M melanoma = tested on: MALME-3M melanoma
MCF7 breast = tested on: MCF7 breast
MDA-MB-231 breast = tested on: MDA-MB-231 breast
MDA-MB-435 = tested on: MDA-MB-435
MDA-MB-468 breast = tested on: MDA-MB-468 breast
MOLT-4 leukemia = tested on: MOLT-4 leukemia
NCI-H226 lung = tested on: NCI-H226 lung
NCI-H23 lung = tested on: NCI-H23 lung
NCI-H460 lung = tested on: NCI-H460 lung
NCI-H522 lung = tested on: NCI-H522 lung
NCI/ADR-RES ovarian = tested on: NCI/ADR-RES ovarian
OVCAR-3 ovarian = tested on: OVCAR-3 ovarian
OVCAR-4 ovarian = tested on: OVCAR-4 ovarian
OVCAR-5 ovarian = tested on: OVCAR-5 ovarian
OVCAR-8 ovarian = tested on: OVCAR-8 ovarian
PC-3 prostate = tested on: PC-3 prostate
RPMI-8226 leukemia = tested on: RPMI-8226 leukemia
RXF 393 renal = tested on: RXF 393 renal
SF-268 CNS = tested on: SF-268 CNS
SF-295 CNS = tested on: SF-295 CNS
SF-539 CNS = tested on: SF-539 CNS
SK-MEL-2 melanoma = tested on: SK-MEL-2 melanoma
SK-MEL-28 melanoma = tested on: SK-MEL-28 melanoma
SK-MEL-5 melanoma = tested on: SK-MEL-5 melanoma
SK-OV-3 ovarian = tested on: SK-OV-3 ovarian
SN12C renal = tested on: SN12C renal
SNB-19 CNS = tested on: SNB-19 CNS
SNB-75 CNS = tested on: SNB-75 CNS
SW-620 colon = tested on: SW-620 colon
T-47D breast = tested on: T-47D breast
TK-10 renal = tested on: TK-10 renal
U251 CNS = tested on: U251 CNS
UACC-257 melanoma = tested on: UACC-257 melanoma
UACC-62 melanoma = tested on: UACC-62 melanoma
UO-31 renal = tested on: UO-31 renal

Work on `O=C(c1ccc(OCCN2CCOCC2)cc1)C1[C@H](c2ccc(Cl)cc2)[C@@H](c2ccccc2)NC12C(=O)Nc1ccc(Br)cc12` (stereo partly specified) yielded a GI50 (786-0 renal) of 2.95 µM, a TGI (786-0 renal) of 6.69 µM and a GI50 (A498 renal) of 3.05 µM. The TGI (A498 renal) was 7.55 µM, the GI50 (A549 NSCLC) was 4.27 µM and the TGI (A549 NSCLC) was greater than 16.3 µM. It also gave a GI50 (ACHN renal) of 3.84 µM, a TGI (ACHN renal) of 14.3 µM and a GI50 (BT-549 breast) of 3.44 µM. It also gave a TGI (BT-549 breast) of 8.33 µM, a GI50 (CAKI-1 renal) of 3 µM and a TGI (CAKI-1 renal) greater than 16.3 µM. For the same compound, the GI50 (CCRF-CEM leukemia) was 4.42 µM, the TGI (CCRF-CEM leukemia) was 12.8 µM and the GI50 (COLO 205 colon) was 2.52 µM. For the same compound, the TGI (COLO 205 colon) was 4.93 µM, the GI50 (DU-145 prostate) was 3.91 µM and the TGI (DU-145 prostate) was 11.8 µM. For the same compound, the GI50 (EKVX NSCLC) was 2.71 µM, the TGI (EKVX NSCLC) was 11.2 µM and the GI50 (HCC-2998 colon) was 2.61 µM. For the same compound, the TGI (HCC-2998 colon) was 5.37 µM, the GI50 (HCT-116 colon) was 2.63 µM and the TGI (HCT-116 colon) was 5.45 µM. For the same compound, the GI50 (HCT-15 colon) was 2.69 µM, the TGI (HCT-15 colon) was 6.23 µM and the GI50 (HL-60(TB) leukemia) was 4.2 µM. It also gave a TGI (HL-60(TB) leukemia) of 12 µM, a GI50 (HOP-62 NSCLC) of 2.83 µM and a TGI (HOP-62 NSCLC) of 6.58 µM. It also gave a GI50 (HOP-92 NSCLC) of 2.35 µM, a TGI (HOP-92 NSCLC) of 6.69 µM and a GI50 (HS 578T breast) of 2.58 µM. It also gave a TGI (HS 578T breast) of 7.19 µM, a GI50 (HT29 colon) of 2.49 µM and a TGI (HT29 colon) of 5.38 µM. For the same compound, the GI50 (IGROV1 ovarian) was 3.32 µM, the TGI (IGROV1 ovarian) was 9.74 µM and the GI50 (K-562 leukemia) was 3.87 µM. It also gave a TGI (K-562 leukemia) greater than 16.3 µM, a GI50 (KM12 colon) of 2.98 µM and a TGI (KM12 colon) of 7.26 µM. It also gave a GI50 (LOX IMVI melanoma) of 2.43 µM, a TGI (LOX IMVI melanoma) of 4.59 µM and a GI50 (M14 melanoma) of 2.56 µM. The TGI (M14 melanoma) was 5.44 µM, the GI50 (MALME-3M melanoma) was 2.39 µM and the TGI (MALME-3M melanoma) was 5.09 µM. The GI50 (MCF7 breast) was 2.92 µM, the TGI (MCF7 breast) was 10.2 µM and the GI50 (MDA-MB-231 breast) was 2.66 µM. The TGI (MDA-MB-231 breast) was 5.09 µM, the GI50 (MDA-MB-435) was 3.17 µM and the TGI (MDA-MB-435) was 7.28 µM. For the same compound, the GI50 (MDA-MB-468 breast) was 2.83 µM, the TGI (MDA-MB-468 breast) was 7.65 µM and the GI50 (MOLT-4 leukemia) was 2.9 µM. It also gave a TGI (MOLT-4 leukemia) of 10.2 µM, a GI50 (NCI-H226 lung) of 2.94 µM and a TGI (NCI-H226 lung) of 7.82 µM. For the same compound, the GI50 (NCI-H23 lung) was 2.87 µM, the TGI (NCI-H23 lung) was 6.76 µM and the GI50 (NCI-H460 lung) was 2.8 µM. It also gave a TGI (NCI-H460 lung) of 5.59 µM, a GI50 (NCI-H522 lung) of 3.39 µM and a TGI (NCI-H522 lung) of 8.58 µM. The GI50 (NCI/ADR-RES ovarian) was 3.87 µM, the TGI (NCI/ADR-RES ovarian) was 12.1 µM and the GI50 (OVCAR-3 ovarian) was 2.56 µM. For the same compound, the TGI (OVCAR-3 ovarian) was 6.91 µM, the GI50 (OVCAR-4 ovarian) was 4.33 µM and the TGI (OVCAR-4 ovarian) was greater than 16.3 µM. The GI50 (OVCAR-5 ovarian) was 2.95 µM, the TGI (OVCAR-5 ovarian) was 9.56 µM and the GI50 (OVCAR-8 ovarian) was 4.37 µM. For the same compound, the TGI (OVCAR-8 ovarian) was greater than 16.3 µM, the GI50 (PC-3 prostate) was 2.96 µM and the TGI (PC-3 prostate) was 9.34 µM. The GI50 (RPMI-8226 leukemia) was 4.05 µM, the TGI (RPMI-8226 leukemia) was 16.1 µM and the GI50 (RXF 393 renal) was 1.84 µM. It also gave a TGI (RXF 393 renal) of 4.57 µM, a GI50 (SF-268 CNS) of 3.66 µM and a TGI (SF-268 CNS) greater than 16.3 µM. The GI50 (SF-295 CNS) was 2.4 µM, the TGI (SF-295 CNS) was 4.94 µM and the GI50 (SF-539 CNS) was 2.73 µM. It also gave a TGI (SF-539 CNS) of 5.19 µM, a GI50 (SK-MEL-2 melanoma) of 2.32 µM and a TGI (SK-MEL-2 melanoma) of 4.8 µM. The GI50 (SK-MEL-28 melanoma) was 2.7 µM, the TGI (SK-MEL-28 melanoma) was 5.08 µM and the GI50 (SK-MEL-5 melanoma) was 2.69 µM. It also gave a TGI (SK-MEL-5 melanoma) of 5.11 µM, a GI50 (SK-OV-3 ovarian) of 4.46 µM and a TGI (SK-OV-3 ovarian) greater than 16.3 µM. For the same compound, the GI50 (SN12C renal) was 2.35 µM, the TGI (SN12C renal) was 4.53 µM and the GI50 (SNB-19 CNS) was 4.46 µM. The TGI (SNB-19 CNS) was greater than 16.3 µM, the GI50 (SNB-75 CNS) was 2.37 µM and the TGI (SNB-75 CNS) was greater than 16.3 µM. It also gave a GI50 (SW-620 colon) of 2.78 µM, a TGI (SW-620 colon) of 5.68 µM and a GI50 (T-47D breast) of 3.09 µM. For the same compound, the TGI (T-47D breast) was greater than 16.3 µM, the GI50 (TK-10 renal) was 3.62 µM and the TGI (TK-10 renal) was 11.1 µM. It also gave a GI50 (U251 CNS) of 2.6 µM, a TGI (U251 CNS) of 5.52 µM and a GI50 (UACC-257 melanoma) of 3.69 µM. The TGI (UACC-257 melanoma) was 13 µM, the GI50 (UACC-62 melanoma) was 2.22 µM and the TGI (UACC-62 melanoma) was 4.46 µM. It also gave a GI50 (UO-31 renal) of 2.57 µM and a TGI (UO-31 renal) of 7.86 µM.
